Assay results reported in patent publication US9861640B2, “Medicament for treatment of Alzheimer's disease” (KEMPHYS LTD., priority 2013, dated 2018).

Columns and labels:
Tg2576 mice = conditions: T-maze spontaneous alternation and Nest building tests [17]; cited from earlier work
[1] = mice [17]; cited from earlier work
IDE = conditions: murine microglial cells [17]; cited from earlier work
rat primary microglia = experiment: Clearance of 125I-labeled oligomeric Aβ1-42 by rat primary microglia; type: cell-based
Excerpt: (§1) Primary microglia (type 1) were harvested from primary mixed glial cell cultures prepared from neonatal Wistar rat pups, as previously reported. Mouse microglial cell line MG5 and mouse glial cell line A1 were maintained as previously described. Mouse neuroblastoma cell line N1E-115 and Neuro 2a (American Type Culture Collection, Manassas, Va., USA) were maintained in Dulbecco's modified Eagle's medium (DMEM) supplemented with 10% fetal bovine serum (FBS), 20 U/ml penicillin (Invitrogen, Gaithersburg, Md., USA), and 20 μg/ml streptomycin (Invitrogen). Primary rat microglia were treated with Am80 (5 μM) and/or HX630 (5 μM) in the presence and absence of GW9662 (10 μM) for 48 h in Eagle's MEM supplemented with 10% FBS and 0.2% glucose. MG5 cells and A1 cells were treated with Am80 (5 μM) and/or HX630 (5 μM) for 48 h in DMEM containing 10% FBS. N1E-115 cells were treated with Am80 (5 μM) and/or HX630 (5 μM) for 5 days in DMEM containing 2% FBS.
^125I-Labeled oligomeric Aβ1-42 (o-Aβ1-42) was prepared as described. Cells were cultured in 24-well plates for 48 h in Eagle's MEM supplemented with 10% FBS in the presence or absence of Am80 (5 μM) and HX630 (5 μM). After the 48-h treatment, the cells were washed twice with labeling medium (DMEM containing 3% BSA) and then incubated with ^125I-labeled o-Aβ1-42 for 6 h at 37° C. Following the 6-h incubation, medium was removed from each well, and soluble radioactivity in TCA (degraded and extracellularly released peptide fragments) was determined as an index of Aβ degradation in the medium as described previously. The Aβ degradation activity may thus include both receptor-mediated phagocytic activity and extracellular protease-mediated degradation. Cells were washed three times with PBS, then lysed with 0.4 ml of 0.1 M NaOH for 30 min at 37° C., and cell-associated (including cell-incorporated) radioactivity and cell proteins were determined with an autogamma counter and the BCA Protein Assay Reagent (Pierce), respectively. We could not determine the activity of IDE-dependent degradation in this medium, because the incubation medium was replaced with labeling medium prior to incubation with ^[…].

APP/PS1 mice = conditions: cited from earlier work
RARs = conditions: at higher concentrations [49]; cited from earlier work
TNF-α = conditions: in vitro, Aβ peptide-activated [72]; cited from earlier work
nitric oxide production = conditions: in vitro [72, 73]; cited from earlier work
RARβ and IL-4Rα mRNAs = conditions: murine dendritic cells [66]; cited from earlier work
RXR = conditions: 20 mg/kg; RXR-specific reporter transgene [48]; cited from earlier work
CD36 = experiment: Immunoblot of CD36 in rat primary microglia; type: cell-based; conditions: rat primary microglia; co-incubation of GW9662 (10 μM) with HX630 (5 μM), 48 h
Excerpt: as §1, with “N1E-115 cells were treated with Am80 (5 μM) and/or HX630 (5 μM) for 5 days in DMEM containing 2% FBS.” left out
Rat primary microglia and mouse microglial MG5 cells (5×10^6 cells per 100-mm dish) were homogenized in RIPA buffer [10 mM Hepes-NaOH (pH 7.4) containing 150 mM NaCl, 1 mM EDTA, 1% Triton X-100, 0.5% sodium deoxycholate, 0.1% SDS, 1 mM PMSF, 1 mg/ml leupeptin. […] Bound horseradish peroxidase-labeled antibodies were then detected via chemiluminescence (an ECL kit; Pierce, Rockford, Ill., USA). Protein concentrations were determined with the BCA Protein Assay Reagent (Pierce) and Bradford Protein Assay Reagent (Pierce).

Q: Which “cognitive deficits in Tg2576 mice” value (Tg2576 mice) does the source give for `CC1(C)CCC(C)(C)c2cc(C(=O)Nc3ccc(C(=O)O)cc3)ccc21` [Am580, 4-{(5,6,7,8-tetrahydro5,5,8,8-tetramethyl-2-naphthalenyl)carboxamido}benzoic acid] here?
A: The value was “ameliorated cognitive deficits”.

Q: What about the “crossing of the BBB” value [1] of the same compound?
A: The value was “crosses the BBB”.

Q: What about the “IDE activity in the medium” value (IDE) of the same compound?
A: The value was “increased”.

Q: With fucoidan as the compound, how does the “effect on the HX630- and Am80/HX630-induced increase of o-Aβ1-42 degradation activity” value (rat primary microglia; fucoidan 100 μg/ml) read?
A: Its value is “inhibited”.

Q: What does the source list for `C=C(c1ccc(C(=O)O)cc1)c1cc2c(cc1C)C(C)(C)CCC2(C)C` [bexarotene]?
A: behavioral defects in APP/PS1 mice (APP/PS1 mice; mouse, in vivo): improved behavioral defects; cross-reactivity with RARs (RARs): cross-reactivity

Q: With `O=C(O)CNC(=O)C(CS)Cc1ccccc1` (centres unmarked) [thiorphan] as the compound, how does the “effect on degradation activity in Am80/HX630-treated cells” value (rat primary microglia; thiorphan 30 μM) read?
A: Its value is “did not affect”.

Q: With `CC1=C(/C=C/C(C)=C/C=C/C(C)=C/C(=O)O)C(C)(C)CCC1` [ATRA, all trans retinoic acid] as the compound, how does the “inhibitory effect on TNF-α production” value (TNF-α) read?
A: Its value is 40-50%.

Q: And the “inhibition of nitric oxide production” value (nitric oxide production)?
A: The value was “complete inhibition”.

Q: What about the “memory function in APP/PS1 mice” value (APP/PS1 mice; ATRA alone [14]) of the same compound?
A: Its value is “improved memory function”.

Q: What about the “mRNAs encoding RARβ and IL-4Rα” value (RARβ and IL-4Rα mRNAs) of the same compound?
A: Its value is “markedly increased”.

Q: And the “activation of RXR in vivo” value (RXR)?
A: The value was “activates RXR”.

Q: With insulin: an IDE inhibitor as the compound, how does the “effect on cell-association and degradation activities in Am80/HX630-treated cells” value (rat primary microglia; insulin 100 μg/ml) read?
A: The value was “inhibited”.

Q: For `O=C(Nc1ccccc1)c1cc([N+](=O)[O-])ccc1Cl` [GW9662], which “effect on the HX630-induced increase in CD36 expression” value (CD36) is on record?
A: Its value is “inhibited”.
